Assay results reported in US7439266B2, “Malononitrile compound and use thereof” (Sumitomo Chemical Company, Limited, priority 2002, dated 2008).
Where two headings read alike, the source gives them in different places.

Assays:
[1] = test system: Musca domestics; experiment: Test Example 4: filter paper with sucrose bait, female housefly imagoes; assay type: in vivo, Musca domestica; conditions: 0.7 ml on filter paper with 30 mg sucrose, ten female imagoes, after 24 hours, read-out: rate of dead pests
Experimental: The formulation obtained according to Formulation Example 5 using the present invention compounds (1), (7), (13)-(17), (20), (28), (32), (36), (37), (39), (44)-(46), (53), (55), (57)-(62), (64)-(70) and (71) respectively, was diluted with water so that the active ingredient concentration came to 500 ppm to prepare a pesticidal solution for test.
(§1) On the bottom of a polyethylene cup having a diameter of 5.5 cm, a filter paper having the same diameter was laid, and 0.7 ml of the above pesticidal solution for test was added dropwise on the filter paper, followed by putting 30 mg of sucrose on it uniformly as a bait. Ten female Musca domestics imagoes were set free in the polyethylene cup and covered it with a lid. After 24 hours, the number of surviving Musca domestics was examined and the rate of dead pests was calculated.

[2] = test system: Culex pipiens pallens; experiment: Test Example 6: last-instar mosquito larvae in treated water; assay type: in vivo; conditions: 24 h, read-out: rate of dead pests
Experimental: The formulation obtained according to Formulation Example 5 using the present invention compounds (7), (8)-(11), (14)-(16), (20), (21), (24)-(26), (28), (29), (31), (37)-(39), (44)-(47), (51), (53), (55), (57), (58), (60)-(67), (69), (70) and (71) respectively, was diluted with water so that the active ingredient concentration came to 500 ppm to prepare a pesticidal solution for test.
0.7 ml of above pesticidal solution for test was added to 100 ml of ion exchanged water (active ingredient concentration: 3.5 ppm). Twenty last-instar larvae of Culex pipiens pallens were set free in the solution. After one day, the number of surviving Culex pipiens pallens was examined and the rate of dead pests was calculated.

[3] = test system: Blattella germanica; experiment: Test Example 5: filter paper with sucrose bait, male German cockroach imagoes; assay type: in vivo; conditions: 144 h, 0.7 ml on filter paper with 30 mg sucrose, two male imagoes, after 6 days, read-out: rate of dead pests
Experimental: The formulation obtained according to Formulation Example 5 using the present invention compounds (1), (25), (28), (36), (39), (40), (44)-(46), (47), (57), (58), (64), (65) and (67) respectively, was diluted with water so that the active ingredient concentration came to 500 ppm to prepare a pesticidal solution for test.
as §1, with “Two male Blattalla germanica” for “Ten female Musca domestics”, “6 days,” for “24 hours,”, “Blattella germanica” for “Musca domestics”

[4] = test system: Aphis gossypii; experiment: Test Example 3: spray on cucumber plant, Aphis gossypii; assay type: in vivo; conditions: 500 ppm, sprayed 20 ml/cup on cucumber plant with about twenty Aphis gossypii; sixth day after the treatment
Experimental: The formulation obtained according to Formulation Example 5 using the present invention compounds (23) was diluted with water so that the active ingredient concentration came to 500 ppm to prepare a pesticidal solution for test.
At the same time, molding Aisai 1 (available from KATAOKA TIKKARIN Co., Ltd.) was put into a 90 ml polyethylene cup, and seeded with cucumber. The plant was grown until the first true leaf was developed, on which about twenty Aphis gossypii were allowed to be parasitic. On the next day, the above pesticidal solution for test was sprayed at a ratio of 20 ml/cup on the cucumber plant. On the sixth day after the application, the number of Aphis gossypii was examined.

[5] = test system: Nilaparvata lugens; experiment: Test Example 1: spray on rice plants, Nilaparvata lugens larvae, 2000 ppm; assay type: in vivo; conditions: sprayed 20 ml/cup on rice plants, thirty first-instar larvae released, sixth day after release, 25° C.
Experimental: The formulation obtained according to Formulation Example 5 using the present invention compound (74) and the reference compound (1) respectively, was diluted with water so that the active ingredient concentration came to 2000 ppm to prepare a pesticidal solution for test. At the same time, 50 grams of molding Bonsoru 2 (available from Sumitomo Chemical Co., Ltd.) was put into a polyethylene cup, and 10 to 15 seeds of rice were planted in the polyethylene cup. The rice plants were grown until the second foliage leaves developed and then cut into the same height of 5 cm. The pesticidal solution for test prepared above was sprayed at the rate of 20 ml/cup to these rice plants. After the pesticidal solution sprayed onto the rice plants were dried, they were put into a plastic cup for escape prevention of test pests, and thirty first-instar larvae of Nilaparvata lugens were set free on the rice plants, followed by covering the plastic cup with a lid. Then the plastic cup was left in a greenhouse (25° C.). On the sixth day after the release of larvae of Nilaparvata lugens, the number of parasitic Nilaparvata lugens on the rice plants was examined.

[6] = 0.7 ml of 500 ppm solution in 100 ml water (active ingredient concentration: 3.5 ppm), twenty last-instar larvae, after one day

SMILES: CCOC(=O)C(C)C(C#N)(C#N)CCC(F)(F)F (centres unmarked) [present invention compound (7), 2-[1-(ethoxycarbonyl)ethyl]-2-(3,3,3-trifluoropropyl)malononitrile]
- pest or weed control at 500 ppm [1]: ≥ 90%
- pest or weed control at 3.5 µg/mL [2, 6]: 100%

SMILES: C#CC(C)(CC)OC(=O)C(C)C(C#N)(C#N)CCC(F)(F)F (centres unmarked) [present invention compound (65), 2-(1-[(1-ethyl-1-methyl-2-propynyl)oxycarbonyl]ethyl)-2-(3,3,3-trifluoropropyl)malononitrile]
- pest or weed control at 500 ppm [3]: 100%

SMILES: CC(C)(C)OC(=O)CC(C#N)(C#N)CCC#N [present invention compound (21), 2-(tert-butoxycarbonylmethyl)-2-(2-cyanoethyl)malononitrile]
- pest or weed control at 3.5 µg/mL [2]: 100%

SMILES: CCCCC(C#N)(C#N)C(C)C(=O)OC(C)(C)C (centres unmarked) [present invention compound (39), 2-[1-(tert-butoxycarbonyl)ethyl]-2-butylmalononitrile]
- pest or weed control at 500 ppm [3]: 100%
- pest or weed control at 500 ppm [1]: ≥ 90%

SMILES: CCCCC(C#N)(C#N)CC(=O)OC(C)(C)C [present invention compound (28), 2-(tert-butoxycarbonylmethyl)-2-butylmalononitrile]
- pest or weed control at 500 ppm [3]: 100%
- pest or weed control at 500 ppm [1]: ≥ 90%
- pest or weed control at 3.5 µg/mL [2, 6]: 100%

SMILES: C#CC(C)(CC)OC(=O)CC(C#N)(C#N)CCC(F)(F)F (centres unmarked) [present invention compound (58), 2-((1-ethyl-1-methyl-2-propynyloxycarbonyl)methyl)-2-(3,3,3-trifluoropropyl)malononitrile]
- pest or weed control at 500 ppm [3]: 100%
- pest or weed control at 3.5 µg/mL [2, 6]: 100%

SMILES: CC(C)(C)OC(=O)CC(C#N)(C#N)CCC(F)=C(F)F [present invention compound (40), 2-(tert-butoxycarbonylmethyl)-2-(3,4,4-trifluoro-3-butenyl)malononitrile]
- pest or weed control at 500 ppm [3]: 100%

SMILES: COC(=O)C(C)C(C#N)(C#N)CCC(F)(F)F (centres unmarked) [present invention compound (71), 2-[1-(methoxycarbonyl)ethyl]-2-(3,3,3-trifluoropropyl)malononitrile]
- pest or weed control at 500 ppm [1]: ≥ 90%
- pest or weed control at 3.5 µg/mL [2, 6]: 100%

SMILES: CC(C)(C)COC(=O)CC(C#N)(C#N)CCC(F)(F)F [present invention compound (53), 2-[(2,2-dimethylpropoxy)carbonylmethyl]-2-(3,3,3-trifluoropropyl)malononitrile]
- pest or weed control at 500 ppm [1]: ≥ 90%
- pest or weed control at 3.5 µg/mL [2, 6]: 100%

SMILES: CC(C)(C)OC(=O)CC(C#N)(C#N)CCCC(F)(F)F [present invention compound (51), 2-(tert-butoxycarbonylmethyl)-2-(4,4,4-trifluorobutyl)malononitrile]
- pest or weed control at 3.5 µg/mL [2, 6]: 100%

SMILES: CCCC(C#N)(C#N)CC(=O)OC(C)(C)C [present invention compound (37), 2-(tert-butoxycarbonylmethyl)-2-propylmalononitrile]
- pest or weed control at 500 ppm [1]: ≥ 90%

SMILES: CC(CCl)OC(=O)CC(C#N)(C#N)CCC(F)(F)F (centres unmarked) [present invention compound (55), 2-[(2-chloro-1-methylethoxy)carbonylmethyl]-2-(3,3,3-trifluoropropyl)malononitrile]
- pest or weed control at 500 ppm [1]: ≥ 90%
- pest or weed control at 3.5 µg/mL [2, 6]: 100%

SMILES: C#CC(C)(C)OC(=O)CC(C#N)(C#N)CCC(F)(F)F [present invention compound (57), 2-[(1,1-dimethyl-2-propynyl)oxycarbonylmethyl]-2-(3,3,3-trifluoropropyl)malononitrile]
- pest or weed control at 500 ppm [3]: 100%
- pest or weed control at 3.5 µg/mL [2, 6]: 100%

SMILES: CC(C(=O)OCC(C)(C)C)C(C#N)(C#N)CCC(F)(F)F (centres unmarked) [present invention compound (70), 2-(1-[(2,2dimethylpropoxy)carbonyl]ethyl)-2-(3,3,3-trifluoropropyl)malononitrile]
- pest or weed control at 3.5 µg/mL [2, 6]: 100%

SMILES: C=CC(C)(C)OC(=O)C(C)C(C#N)(C#N)CCC(F)(F)F (centres unmarked) [present invention compound (67), 2-(1-[(1,1-dimethyl-2-propenyl)oxycarbonyl]ethyl)-2-(3,3,3-trifluoropropyl)malononitrile]
- pest or weed control at 500 ppm [3]: 100%

SMILES: CC(C)CCC(C#N)(C#N)CC(=O)OC(C)(C)C [present invention compound (31), 2-(tert-butoxycarbonylmethyl)-2-(3-methylbutyl)malononitrile]
- pest or weed control at 3.5 µg/mL [2, 6]: 100%

SMILES: CC(C)(C)OC(=O)CC(C#N)(C#N)CCF [present invention compound (23), 2-(tert-butoxycarbonylmethyl)-2-(2-fluoroethyl)malononitrile]
- number of parasitic Aphis gossypii [4]: ≤ 3

SMILES: N#CC(C#N)(CCC(F)(F)F)CC(=O)OC1CCCCC1 [present invention compound (20), 2-(cyclohexyloxycarbonylmethyl)-2-(3,3,3-trifluoropropyl)malononitrile]
- pest or weed control at 500 ppm [1]: ≥ 90%
- pest or weed control at 3.5 µg/mL [2, 6]: 100%

SMILES: CCC(C)C(C#N)(C#N)CC(=O)OC(C)(C)C (centres unmarked) [present invention compound (32), 2-(tert-butoxycarbonylmethyl)-2-(1-methylpropyl)malononitrile]
- pest or weed control at 500 ppm [1]: ≥ 90%

SMILES: CC(C)(C)SC(=O)CC(C#N)(C#N)CCC(F)(F)F [present invention compound (47), 2-[(tert-butylthio)carbonylmethyl]-2-(3,3,3-trifluoropropyl)malononitrile]
- pest or weed control at 500 ppm [3]: 100%

SMILES: C#CC(C)(C)OC(=O)C(C)C(C#N)(C#N)CCC(F)(F)F (centres unmarked) [present invention compound (64), 2-(1-[(1,1-dimethyl-2-propynyl)oxycarbonyl]ethyl)-2-(3,3,3-trifluoropropyl)malononitrile]
- pest or weed control at 500 ppm [3]: 100%

SMILES: CC(C)CC(C)OC(=O)C(C)C(C#N)(C#N)CCC(F)(F)F (centres unmarked) [present invention compound (69), 2-(1-[(1,3-dimethylbutoxy)carbonyl]ethyl)-2-(3,3,3-trifluoropropyl)malononitrile]
- pest or weed control at 3.5 µg/mL [2, 6]: 100%

SMILES: CC(CCl)CC(C#N)(C#N)CC(=O)OC(C)(C)C (centres unmarked) [present invention compound (25), 2-(tert-butoxycarbonylmethyl)-2-(3-chloro-2-methylpropyl)malononitrile]
- pest or weed control at 500 ppm [3]: 100%

SMILES: CCCCCC(C#N)(C#N)CC(=O)OC(C)(C)C [present invention compound (29), 2-(tert-butoxycarbonylmethyl)-2-pentylmalononitrile]
- pest or weed control at 3.5 µg/mL [2, 6]: 100%

SMILES: CCOC(=O)CCC(C#N)C#N [reference compound (1), 2-[2-(ethoxycarbonyl)ethyl]malononitrile, reference compound]
- number of parasitic Nilaparvata lugens [5]: ≥ 20

SMILES: CCOC(=O)CC(C)(C#N)C#N [present invention compound (74), 2-(ethoxycarbonylmethyl)-2-methylmalononitrile]
- number of parasitic Nilaparvata lugens [5]: ≤ 3

SMILES: CC=CCC(C#N)(C#N)CC(=O)OC(C)(C)C [present invention compound (36), 2-(tert-butoxycarbonylmethyl)-2-(2-butenyl)malononitrile]
- pest or weed control at 500 ppm [3]: 100%
- pest or weed control at 500 ppm [1]: ≥ 90%
